Laboratory results taken from the supplement of paper PMC10307832.

Experiments:
Assay in all cases: relative viability (nuclei count vs DMSO), 5 days (fraction); higher = more cells survive
Idelalisib = compound: CC[C@H](Nc1ncnc2[nH]cnc12)c1nc2cccc(F)c2c(=O)n1-c1ccccc1 [Idelalisib]
Method in brief: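 On vehicle-anchored 1536-well plates, lung cancer cell lines held overnight at 37 °C were pinned with five library-drug doses (not always all listed) spaced by √10. With no medium change over 5 days, they were then fixed, permeabilised and Hoechst-stained in one step and imaged at 4×. MetaXpress counted nuclei, and viability is the median across plates of treated-well over vehicle-well nuclei. Acceptance needed control CV below 25% and at least one doubling.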

Pemetrexed + Alpelisib = compound: Nc1nc2[nH]cc(CCc3ccc(C(=O)N[C@@H](CCC(=O)O)C(=O)O)cc3)c2c(=O)[nH]1 [Pemetrexed] + Cc1nc(NC(=O)N2CCC[C@H]2C(N)=O)sc1-c1ccnc(C(C)(C)C(F)(F)F)c1 [Alpelisib] (partner 2 µM)
Method in brief: (§1)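 The day after seeding in 1536-well plates, lung cancer cell lines were treated by pin tool with a single drug, or with a fixed anchor-drug dose together with five library-drug doses (not always all listed) in √10 steps. After 5 days, a combined fix-and-stain solution (final 0.05% Triton X-100, 1% formaldehyde, 1 ug/ml Hoechst) was added. Nuclei counted on 4× images gave relative viability as treated counts over vehicle counts, reported as the median of duplicate plates.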

Pemetrexed + Tozasertib = compound: Nc1nc2[nH]cc(CCc3ccc(C(=O)N[C@@H](CCC(=O)O)C(=O)O)cc3)c2c(=O)[nH]1 [Pemetrexed] + Cc1cc(Nc2cc(N3CCN(C)CC3)nc(Sc3ccc(NC(=O)C4CC4)cc3)n2)n[nH]1 [Tozasertib] (partner 0.1 µM)
Method in brief: as §1

Idelalisib + OSI-027 = compound: CC[C@H](Nc1ncnc2[nH]cnc12)c1nc2cccc(F)c2c(=O)n1-c1ccccc1 [Idelalisib] + COc1cccc2cc(-c3nc([C@H]4CC[C@H](C(=O)O)CC4)n4ncnc(N)c34)[nH]c12 [OSI-027] (partner 0.5 µM)
Method in brief: as §1

| Cell Line | relative viability (Idelalisib; 0.04 µM) | relative viability (Idelalisib; 0.1265 µM) | relative viability (Idelalisib; 0.4 µM) | relative viability (Idelalisib; 1.265 µM) | relative viability (Idelalisib; 4 µM) | relative viability (Pemetrexed + Alpelisib; first compound 0.002 µM) | relative viability (Pemetrexed + Alpelisib; first compound 0.006325 µM) | relative viability (Pemetrexed + Alpelisib; first compound 0.02 µM) | relative viability (Pemetrexed + Alpelisib; first compound 0.06325 µM) | relative viability (Pemetrexed + Alpelisib; first compound 0.2 µM) | relative viability (Pemetrexed + Tozasertib; first compound 0.002 µM) | relative viability (Pemetrexed + Tozasertib; first compound 0.006325 µM) | relative viability (Pemetrexed + Tozasertib; first compound 0.02 µM) | relative viability (Pemetrexed + Tozasertib; first compound 0.06325 µM) | relative viability (Pemetrexed + Tozasertib; first compound 0.2 µM) | relative viability (Idelalisib + OSI-027; first compound 0.04 µM) | relative viability (Idelalisib + OSI-027; first compound 0.1265 µM) | relative viability (Idelalisib + OSI-027; first compound 0.4 µM) | relative viability (Idelalisib + OSI-027; first compound 1.265 µM) | relative viability (Idelalisib + OSI-027; first compound 4 µM) |
| --- | --- | --- | --- | --- | --- | --- | --- | --- | --- | --- | --- | --- | --- | --- | --- | --- | --- | --- | --- | --- |
| NCI-H2023 | 1.05 | 0.973 | 0.792 | 0.818 | 0.968 | 0.573 | 0.521 | 0.558 | 0.524 | 0.289 | 0.245 | 0.338 | 0.364 | 0.379 | 0.223 | 0.473 | 0.339 | 0.285 | 0.278 | 0.313 |
| Calu-6 | 1.04 | 1.04 | 0.977 | 0.998 | 0.947 | 0.995 | 1.01 | 1.05 | 0.918 | 0.954 |  |  |  |  |  |  |  |  |  |  |
| SW 900 | 0.855 | 0.851 | 0.701 | 0.853 | 0.696 |  |  |  |  |  | 0.5 | 0.535 | 0.678 | 0.495 | 0.466 | 0.553 | 0.642 | 0.376 | 0.744 | 0.373 |
| HOP-62 | 1.07 | 0.998 | 0.936 | 1.14 | 0.963 | 0.842 | 0.868 | 0.896 | 0.847 | 0.957 | 0.334 | 0.306 | 0.409 | 0.368 | 0.349 | 0.775 | 0.879 | 0.719 | 0.888 | 0.767 |
| H3255 | 1.06 | 0.946 | 0.925 | 0.959 | 0.879 |  | 0.656 | 0.736 | 0.606 | 0.632 | 0.653 | 0.707 | 0.754 | 0.709 | 0.555 | 0.721 | 0.566 | 0.558 | 0.517 | 0.534 |
| NCI-H1734 | 1.15 | 1.04 | 0.833 | 0.959 | 0.938 | 0.694 | 0.731 | 0.629 | 0.632 | 0.698 | 0.249 | 0.221 | 0.268 | 0.284 | 0.248 | 0.659 | 0.593 | 0.404 | 0.579 | 0.537 |
| SK-MES-1 | 1.04 | 1.01 | 0.885 | 0.749 | 0.745 | 0.92 | 0.732 | 1.04 | 0.864 | 0.8 | 0.891 | 0.843 | 0.879 | 0.843 | 0.817 | 0.666 | 0.611 | 0.427 | 0.218 | 0.467 |
| NCI-H1792 | 1.08 | 0.942 | 0.653 | 1.09 | 0.85 | 0.685 | 0.731 | 0.806 | 0.788 | 0.634 |  |  |  |  |  | 0.466 | 0.778 | 0.598 | 0.836 | 0.51 |
| EKVX | 0.925 | 1.01 | 0.849 | 0.854 | 0.8 | 0.827 | 0.89 | 0.943 | 0.827 | 0.615 | 0.373 | 0.398 | 0.37 | 0.367 | 0.263 | 0.705 | 0.709 | 0.527 | 0.557 | 0.586 |
| EPLC-272H | 1.07 | 0.9 | 0.815 | 0.902 | 0.873 | 0.876 | 0.938 | 1.11 | 0.962 | 0.847 | 0.284 | 0.261 | 0.225 | 0.251 | 0.306 | 0.304 | 0.296 | 0.271 | 0.294 | 0.274 |
| LK-2 | 1.22 | 1 |  | 1.06 | 0.87 |  | 1.07 | 1.12 | 0.962 | 0.773 | 0.191 | 0.148 | 0.176 | 0.197 | 0.165 | 0.219 | 0.223 |  | 0.198 | 0.183 |
| CAL-12T | 1.1 | 1.08 | 1.01 | 1.11 | 1.08 | 1.03 | 0.976 | 1.11 | 1.15 | 1.05 | 0.337 | 0.276 | 0.329 | 0.286 | 0.277 | 0.643 | 0.753 | 0.537 | 0.569 | 0.537 |
| NCI-H322M | 1.08 | 1.03 | 0.808 | 0.849 | 0.873 | 0.814 | 0.724 | 0.813 | 0.776 | 0.773 | 0.513 | 0.505 | 0.486 | 0.504 | 0.452 | 0.612 | 0.546 | 0.463 | 0.539 | 0.511 |
| NCI-H1650 | 0.984 | 0.907 | 0.882 | 0.91 | 0.815 |  |  |  |  |  | 0.388 | 0.353 | 0.47 | 0.304 | 0.298 | 0.641 | 0.602 | 0.478 | 0.578 | 0.536 |
| NCI-H2342 | 1.06 | 1.09 | 0.907 | 1.03 | 0.882 |  |  |  |  |  | 0.454 | 0.497 | 0.573 | 0.589 | 0.486 | 0.587 | 0.613 | 0.582 | 0.641 | 0.618 |
| SW 1573 | 1.09 | 0.886 | 0.896 | 0.961 | 0.923 | 0.826 | 0.741 | 0.723 | 0.733 | 0.76 | 0.241 | 0.197 | 0.201 | 0.139 | 0.178 | 0.625 | 0.656 | 0.518 | 0.492 | 0.531 |
| NCI-H2405 | 1.06 | 0.985 | 0.886 | 1 | 0.956 | 0.896 | 0.714 | 0.868 | 0.712 | 0.736 | 0.75 | 0.738 | 0.832 | 0.778 | 0.694 | 0.675 | 0.648 | 0.433 | 0.612 | 0.516 |
